# Patent publication US20070254332A1, “Method for Readily Detecting Class C Beta-Lactamase-Producing Bacteria” (JAPAN HEALTH SCIENCES FOUNDATION, priority 2003, published 2007)
# What was measured:
# Format in all cases: cell-based
# C. freundi HKY543 = assay: Disk test, CAZ disk versus CAZ + APB disk (second aspect); conditions: overnight culturing
# Protocol: (§2) In the same manner as in Embodiment 1, the test bacterium was inoculated onto a Mueller-Hinton agar medium, and KB disks (6 mm in diameter) of CAZ were positioned at least 3 cm apart center-on-center. […] After overnight culturing, the diameters of the growth inhibitory zones around the two CAZ disks were measured.
# P. aeruginosa NCB03-192 = assay: MIC by trace quantity liquid dilution method; conditions: Pseudomonas aeruginosa, NCB03192
# Protocol: (§1) Following overnight culturing, the MIC was measured.
# E. cloacae HKY226 [1] = assay: MIC by trace quantity liquid dilution method; conditions: Enterobacter cloacae
# Protocol: as §1
# C. freundii HKY543 = assay: MIC by trace quantity liquid dilution method; conditions: Citrobacter freundii
# Protocol: as §1
# S. marcescens S94 = assay: MIC by trace quantity liquid dilution method; conditions: Serratia marcescens
# Protocol: as §1
# [2] = tested on: K. pneumoniae NCB02189 DHA-1 + CTX-M9; assay: MIC by trace quantity liquid dilution method; conditions: Klebsiella pneumoniae
# Protocol: as §1
# [3] = tested on: Klebsiella pneumoniae NU2936 (MOX-1: Class C); assay: MIC by trace quantity liquid dilution method
# Protocol: as §1
# E. coli NS12 CMY-2 = assay: MIC by trace quantity liquid dilution method; conditions: Escherichia coli, NS12CMY2
# Protocol: as §1
# E. cloacae HKY226 [4] = assay: Disk test, CAZ disk versus CAZ + APB disk (second aspect); conditions: overnight culturing
# Protocol: as §2
# [5] = tested on: Klebsiella pneumoniae HKY402 (SHV-12: Class A); assay: MIC by trace quantity liquid dilution method
# [6] = tested on: K. pneumoniae SHV-12 Class A; assay: Disk test, CAZ disk versus CAZ + APB disk (second aspect); conditions: overnight culturing
# Protocol: as §2
# [7] = tested on: Klebsiella pneumoniae KP1 15 (IMP-1: Class B); assay: MIC by trace quantity liquid dilution method
compound,measurement,setting,value
"CC(C)(O/N=C(\C(=O)N[C@@H]1C(=O)N2C(C(=O)[O-])=C(C[n+]3ccccc3)CS[C@H]12)c1csc(N)n1)C(=O)O [CAZ, ceftazidime]",Inhibitory zone around the disk,C. freundi HKY543,A small inhibitory zone was observed
same,MIC,P. aeruginosa NCB03-192,16 µg/mL
same,MIC,E. cloacae HKY226 [1],256 µg/mL
same,MIC,C. freundii HKY543,64 µg/mL
same,MIC,S. marcescens S94,64 µg/mL
same,MIC,[2],64 µg/mL
same,MIC,[3],64 µg/mL
same,MIC,E. coli NS12 CMY-2,64 µg/mL
same,Inhibitory zone around the disk,E. cloacae HKY226 [4],No inhibitory zone was observed around
same,MIC,[5],> 512 µg/mL
same,Inhibitory zone around the disk,[6],No inhibitory zones observed around
same,MIC,[7],256 µg/mL
